For four compounds, IC50 results are on record in BindingDB's records for doi:10.1016/j.bmc.2010.03.023 (Swedish University Agricultural Sciences, 2010).

Assay [1] has as its target T1, Thymidine kinase, cytosolic (Homo sapiens, UniProt P04183).
T1 sequence (P04183 whole entry): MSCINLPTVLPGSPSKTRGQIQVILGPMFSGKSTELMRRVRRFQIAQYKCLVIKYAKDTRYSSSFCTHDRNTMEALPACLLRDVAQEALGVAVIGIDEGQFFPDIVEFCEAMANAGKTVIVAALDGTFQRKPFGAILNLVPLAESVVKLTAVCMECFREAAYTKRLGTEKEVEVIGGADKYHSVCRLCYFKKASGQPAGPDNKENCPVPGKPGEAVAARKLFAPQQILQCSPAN
Kind of assay: Inhibition of human TK1 by liquid scintillation counting.

Assay [2] concerns the target T2, Thymidine kinase (Ureaplasma parvum serovar 3 (strain ATCC 700970), UniProt Q9PPP5).
T2 sequence (Q9PPP5 whole entry): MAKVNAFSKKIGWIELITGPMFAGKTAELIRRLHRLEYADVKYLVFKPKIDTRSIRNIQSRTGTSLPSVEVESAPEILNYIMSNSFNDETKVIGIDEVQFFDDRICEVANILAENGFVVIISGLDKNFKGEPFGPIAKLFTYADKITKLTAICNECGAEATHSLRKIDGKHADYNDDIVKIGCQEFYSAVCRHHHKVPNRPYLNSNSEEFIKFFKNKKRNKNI
The assay is described as follows: Inhibition of Ureaplasma parvum thymidine kinase by liquid scintillation counting.

Each structure is given as a SMILES string.

`Cc1cn([C@H]2C[C@H](n3cc(C(C)(C)C)nn3)[C@@H](CO)O2)c(=O)[nH]c1=O` [3'-(4-tert-Butyl-1,2,3-triazol-1-yl)-3'-deoxythymidine]: the IC50 came out at 114 µM in assay [1] and 318 µM in assay [2].

As to `Cc1cn([C@H]2C[C@H](n3cc(-c4ccccc4)nn3)[C@@H](CO)O2)c(=O)[nH]c1=O` [3'-Deoxy-3'-(4-phenyl-1,2,3-triazol-1-yl)-beta-D-thymidine], in assay [2], the IC50 was found to be 200 µM.

`Cc1cn([C@H]2C[C@H](n3cc(-c4ccccn4)nn3)[C@@H](CO)O2)c(=O)[nH]c1=O` [3'-Deoxy-3'-(4-pyridin-2-yl-1,2,3-triazol-1-yl)-beta-D-thymidine] showed an IC50 in assay [2] of 211 µM.

In assay [2], `Cc1cn([C@H]2C[C@H](n3cc(CCc4ccccc4)nn3)[C@@H](CO)O2)c(=O)[nH]c1=O` [3'-(4-(2-Phenyl-ethyl)-1,2,3-triazole-1-yl)-2'-deoxythymidine] came in with an IC50 of 120 µM.
